Test results from the supplement of paper PMC10307832.

What was measured:
Assay in all cases: relative viability (nuclei count vs DMSO), 5 days (fraction); higher = more cells survive
[1] = compound: C1=CC(=CC=C1NC(=S)NNC2=C(C=C(C=C2[N+](=O)[O-])C(F)(F)F)[N+](=O)[O-])F [Kobe2602] + O=C(c1cc(Cc2n[nH]c(=O)c3ccccc23)ccc1F)N1CCN(C(=O)C2CC2)CC1 [Olaparib] (partner 8 µM)
Summary of the method: (§1)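 A single step with final 0.05% Triton X-100, 1% formaldehyde and 1 ug/ml Hoechst fixed the cells and stained nuclei 5 days after treatment. Lung cancer cell lines in 1536-well plates had been treated by pin tool the day after seeding with one drug alone or a fixed anchor-drug dose plus five library-drug doses (not always all listed) in √10 steps, and nuclei were counted on 4× images. Relative viability is the ratio of nuclei in treated wells to nuclei in vehicle wells, taken as the median of duplicate plates.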

[2] = compound: COc1cc2nccc(Oc3ccc(NC(=O)C4(C(=O)Nc5ccc(F)cc5)CC4)cc3)c2cc1OC [Cabozantinib] + O=C(CCCCCCC(=O)Nc1ccccc1)NO [Vorinostat] (partner 1 µM)
Summary of the method: as §1

[3] = compound: C1=CC(=CC=C1NC(=S)NNC2=C(C=C(C=C2[N+](=O)[O-])C(F)(F)F)[N+](=O)[O-])F [Kobe2602] + NC(=O)Nc1cc(-c2cccc(F)c2)sc1C(=O)N[C@H]1CCCNC1 [AZD7762] (partner 0.2 µM)
Summary of the method: as §1

[4] = compound: C1=CC(=CC=C1NC(=S)NNC2=C(C=C(C=C2[N+](=O)[O-])C(F)(F)F)[N+](=O)[O-])F [Kobe2602] + O=C(CCCCCCC(=O)Nc1ccccc1)NO [Vorinostat] (partner 1 µM)
Summary of the method: as §1

Cell Line	relative viability ([1]; first compound 0.2 µM)	relative viability ([1]; first compound 0.6325 µM)	relative viability ([1]; first compound 2 µM)	relative viability ([1]; first compound 6.325 µM)	relative viability ([1]; first compound 20 µM)	relative viability ([2]; first compound 0.02 µM)	relative viability ([2]; first compound 0.06325 µM)	relative viability ([2]; first compound 0.6325 µM)	relative viability ([2]; first compound 2 µM)	relative viability ([3]; first compound 0.2 µM)	relative viability ([3]; first compound 0.6325 µM)	relative viability ([3]; first compound 2 µM)	relative viability ([3]; first compound 6.325 µM)	relative viability ([3]; first compound 20 µM)	relative viability ([4]; first compound 0.2 µM)	relative viability ([4]; first compound 0.6325 µM)	relative viability ([4]; first compound 2 µM)	relative viability ([4]; first compound 6.325 µM)	relative viability ([4]; first compound 20 µM)	relative viability ([2]; first compound 0.2 µM)
PC-3 [JPC-3]	1.1	1.22	1.13	1.19	1.13	0.694	1.1	0.816	1.02	0.872	0.913	0.603	0.823	0.835	0.943	1.1	0.787	0.874	0.771	–
HARA	0.868	1.03	0.914	0.958	0.78	0.576	0.52	0.529	0.489	0.304	0.266	0.477	0.356	0.379	0.529	0.553	0.422	0.509	0.767	–
NCI-H2347	0.603	0.548	0.559	0.53	0.607	0.525	0.525	0.469	0.391	0.85	0.77	0.798	0.713	0.806	0.523	0.696	0.732	0.661	0.705	0.627
LOU-NH91	0.9	0.922	0.875	0.917	0.819	0.851	0.973	0.853	0.914	0.739	0.792	0.717	0.758	0.716	0.886	1.02	0.837	0.905	0.863	0.822
LC-2-ad	0.693	0.683	0.708	0.736	0.682	0.724	0.806	0.682	0.522	0.822	0.879	0.85	0.833	0.828	0.664	0.706	0.719	0.649	0.722	0.767
LCLC-97TM1	0.365	0.416	–	0.437	0.383	0.24	0.823	0.781	0.751	0.364	0.303	0.341	0.279	0.37	0.692	0.893	–	0.964	0.722	0.739
EKVX	0.749	0.792	0.864	0.786	0.808	0.725	0.868	0.708	0.84	0.724	0.701	0.736	0.722	0.865	0.678	0.879	0.652	0.757	0.672	–
NCI-H441	0.581	0.716	0.66	0.511	0.545	0.782	0.922	0.794	0.845	1.1	1.11	1.13	1.13	1.06	0.756	0.711	0.808	0.646	0.697	0.882
HCC-827	0.681	0.678	0.683	0.664	0.725	0.837	1.05	0.785	0.526	0.217	0.223	0.349	0.242	0.339	0.891	0.739	0.804	0.892	0.945	–
NCI-H838	0.733	0.779	0.759	0.725	0.764	0.744	0.765	0.665	0.667	0.918	1.01	0.874	0.915	0.898	0.68	0.767	0.654	0.703	0.683	0.713
CAL-12T	0.697	0.685	0.678	0.707	0.784	0.849	0.673	0.822	0.833	0.644	0.736	0.568	0.609	0.506	0.828	0.831	0.769	0.851	0.706	0.801
NCI-H2342	0.415	0.406	0.435	0.493	0.434	0.735	0.776	0.798	0.724	0.47	0.448	0.704	0.461	0.655	0.713	0.789	0.761	0.716	1.17	0.697
SW 900	0.914	0.981	0.679	0.969	0.976	0.521	0.678	0.515	0.464	0.7	0.551	0.496	0.657	0.595	0.677	0.645	0.492	0.476	0.602	0.411
IA-LM	0.851	0.718	0.773	0.894	0.862	0.995	1.18	0.946	1.2	–	–	–	–	–	0.894	0.95	0.819	0.953	0.988	1
EPLC-272H	0.905	0.744	0.578	0.663	0.943	0.299	0.44	0.534	0.524	0.349	0.212	0.187	0.24	0.282	0.494	0.676	0.557	0.402	0.479	0.402
A-427	0.74	0.726	0.73	0.785	0.701	0.871	0.865	0.841	0.951	0.784	0.809	0.808	0.812	0.939	0.889	0.849	0.906	0.888	0.867	0.902
NCI-H727	0.748	0.678	0.847	–	0.736	0.935	1.36	1.28	1.22	0.57	0.519	0.532	–	0.644	1.18	1.31	1.06	–	1.55	1.23

Cell Line	relative viability ([1]; first compound 0.2 µM)	relative viability ([1]; first compound 0.6325 µM)	relative viability ([1]; first compound 2 µM)	relative viability ([1]; first compound 6.325 µM)	relative viability ([1]; first compound 20 µM)	relative viability ([2]; first compound 0.02 µM)	relative viability ([2]; first compound 0.06325 µM)	relative viability ([2]; first compound 0.6325 µM)	relative viability ([2]; first compound 2 µM)	relative viability ([3]; first compound 0.2 µM)	relative viability ([3]; first compound 0.6325 µM)	relative viability ([3]; first compound 2 µM)	relative viability ([3]; first compound 6.325 µM)	relative viability ([3]; first compound 20 µM)	relative viability ([4]; first compound 0.2 µM)	relative viability ([4]; first compound 0.6325 µM)	relative viability ([4]; first compound 2 µM)	relative viability ([4]; first compound 6.325 µM)	relative viability ([4]; first compound 20 µM)	relative viability ([2]; first compound 0.2 µM)
SW 1573	0.477	0.416	0.306	0.466	0.152	0.757	0.844	0.898	0.906	–	–	–	–	–	0.743	0.868	0.676	0.868	0.77	0.961
NCI-H661	0.714	0.695	0.697	0.754	0.802	0.783	0.856	0.809	0.935	–	–	–	–	–	0.777	0.799	0.753	0.825	0.827	0.879
NCI-H520	0.333	0.38	0.381	0.353	0.333	0.719	0.64	0.598	0.688	–	–	–	–	–	0.702	0.775	0.637	0.691	0.731	0.715
COR-L 105	0.658	0.718	0.425	0.588	0.686	0.847	1.05	0.839	0.89	–	–	–	–	–	0.786	0.932	0.647	0.774	0.705	0.734
NCI-H2009	0.685	0.701	0.735	0.714	0.736	0.701	0.855	0.809	0.748	–	–	–	–	–	0.715	0.783	0.763	0.752	0.692	0.744
NCI-H1703	0.454	0.364	0.4	0.483	0.431	–	–	–	–	–	0.13	0.111	–	0.173	–	–	–	–	–	–
EBC-1	0.687	0.684	0.69	0.647	0.759	–	–	–	–	–	–	–	–	–	–	–	–	–	–	–
NCI-H1792	0.372	0.556	0.398	0.253	0.566	–	–	–	–	0.553	0.792	0.593	0.578	0.769	–	–	–	–	–	–
NCI-H1650	0.844	0.891	0.819	0.868	0.8	0.655	0.643	0.586	0.543	–	–	–	–	–	0.598	0.617	0.642	0.539	0.527	0.519
A549	0.45	0.484	0.281	0.315	0.513	–	–	–	–	–	–	–	–	–	–	–	–	–	–	–
NCI-H1299	0.996	1.02	0.949	1.02	0.985	–	–	–	–	–	–	–	–	–	–	–	–	–	–	–
SK-LU-1	0.463	0.471	0.494	0.457	0.523	0.719	1.04	0.797	0.72	–	–	–	–	–	0.734	0.86	0.856	0.836	0.823	0.755
SK-MES-1	0.674	0.643	0.635	0.551	0.281	1.06	1.27	1.11	1.16	–	–	–	–	–	1.03	1.11	1.01	0.97	0.585	1.16
NCI-H2228	0.738	0.576	0.689	0.593	0.629	0.732	1.05	0.74	0.707	–	–	–	–	–	0.649	0.744	0.522	0.425	0.611	0.763
NCI-H2023	0.496	0.566	0.511	0.446	0.166	0.608	0.623	0.648	0.594	–	–	–	–	–	0.56	0.75	0.566	0.481	0.317	0.599
Calu-6	0.581	0.589	0.606	0.631	0.514	–	–	–	–	–	–	–	–	–	–	–	–	–	–	–
COR-L23	0.316	0.394	0.351	0.361	0.326	0.367	0.692	0.407	0.417	–	–	–	–	–	0.476	0.491	0.405	0.472	0.404	0.431
